Measured values reported in patent publication US20230087844A1, “USE OF N2-QUINCLINE OR ISOQUINOLINE SUBSTITUTED PURINE DERIVATIVES IN CANCER TREATMENT” (SHANGHAI HUAYU BIOTECHNOLOGY CO., LTD., priority 2020, published 2023).
Marks after values point to notes of the source that are not given here.

Key:
[1] = test system: AKT; test: Inhibition of AKT phosphorylation; type: biochemical
Description: (§1) FLT3 is a class III receptor tyrosine kinase and plays an important role in hematopoiesis and lymphocyte development. […] Wang et al found over 60% of 82 leukemia cell lines were FLT3 positive (Wang Y et al., (2006) Journal of Experimental Hematology 14(3): 446-449). FLT3-internal tandem duplication (ITD) is the most commonly seen mutation in AML patients, with about 17-34% of AML patients carrying such a mutation (Jia H et al., (2018) Medical Laboratory Science and Clinics 19(5): 39). […] Thus, the compounds of the disclosure with high inhibitory effect on FLT3 function may be good candidates for leukemia treatment.

[2] = target: FLT3 (Homo sapiens, UniProt P36888); test: Inhibition of FLT3 phosphorylation; type: biochemical
Description: as §1

[3] = test system: A549; test: MTT tumor cell proliferation, A549; type: cell-based; conditions: Homo sapiens; A549, Lung cancer, 72 hour
Description: (§2) as an exemplary compound of formula (I), was tested for its inhibitory effect on tumor cell proliferation in a MTT assay.
(§3) Briefly, cells at the log phase were collected, suspended in the cell culture medium at 4*10^4/ml density, and plated in 96-well plates, 90 μl per well. The plates were kept in a 5% CO2 and 37° C. incubator for 2 hours, and then added with 100 μg/ml, 10 μg/ml, 1 μg/ml, 0.1 μg/ml, 0.01 μg/ml or 0.001 μg/ml Compound A, 4 replicates for each cell at each compound concentration. DMSO was used in the positive control group, and another negative group was also set. After 72 hour incubation in the same incubator, 20 μl 5 mg/ml MTT reagent was added to each well. After another 4 hour incubation, each well was added with 100 μl SDS and further incubated for 12 hours. Absorbance at 570 nm was read in a reader, and IC50 was calculated.

[4] = test system: Ls-174t; test: MTT tumor cell proliferation, Ls-174t; type: cell-based; conditions: Homo sapiens, LS174T, Colon cancer, 72 hour
Description: as §2, §3

[5] = test system: HT-29; test: MTT tumor cell proliferation, HT-29; type: cell-based; conditions: Homo sapiens; HT-29, Colon cancer, 72 hour
Description: as §2, §3

[6] = test system: MDA-MB-231; test: MTT tumor cell proliferation, MDA-MB-231; type: cell-based; conditions: Homo sapiens; MDA-MB-231, Breast cancer, 72 hour
Description: as §2, §3

[7] = test system: MV-4-11; test: MTT tumor cell proliferation, MV-4-11; type: cell-based; conditions: Homo sapiens, MV4-11; MV-4-11, Acute myeloid leukemia, 72 hour
Description: as §2, §3

[8] = test system: Reh; test: MTT tumor cell proliferation, Reh; type: cell-based; conditions: Homo sapiens, Acute lymphocytic leukemia, 72 hour
Description: as §2, §3

[9] = test system: solid cancer cell lines; test: MTT tumor cell proliferation, solid cancer cell lines (summary); type: cell-based; conditions: summary of Table 2
Description: as §2, §3

[10] = test system: S180 murine sarcoma cancer cells; test: S180 sarcoma growth in mice; conditions: for TGI: tumor weight, Day 8
Description: On Day 8, the mice were weighed and sacrificed, and the tumors were collected and weighed.
Tumor growth inhibition (TGI) was calculated by the following formula. Tumor growth inhibition=(average tumor weight in vehicle group-average tumor weight in administration group)/average tumor weight in vehicle group×100%

[11] = test system: Ls-174t human colon cancer cells; test: Ls-174t colon cancer xenograft in mice; type: in vivo, BALB/cA-nude mice; conditions: for T/C: D14
Description: Mice were sacrificed on Day-14.

[12] = test system: H446; test: Tumor cell death by MTT, H446; type: cell-based, human; conditions: 20 nM
Description: The in vitro inhibitory effect of Compound A alone or in combination with a PARP inhibitor on tumor cell growth was tested using human small cell lung cancer (SCLC) cell lines, including H69 (ATCC® HTB-119™), H526 (ATCC® CRL-5811™) and H446 (TCHu196, National Collection of Authenticated Cell Cultures).
Briefly, the cells were seeded into a 96-well dish with RPMI-1640 (10-040-CV, Coming cellgro) containing 10% fetal bovine serum (10270-106, GIBCO), 1% penicillin and 1% streptomycin (BaSalMedia, S110JV), at an initial density of 3×10^3 cells per well ([…]), and cultured at a 37° C., 5% CO2 humidified incubator for 24 hours. Then, the culture media were added with Compound A (final concentration at 20 nM), olaparib (APEXBIO, A4154, a PARP inhibitor, final concentration at 10 μM), Compound A + olaparib (final concentrations at20 nM and 10 μM), or PBS (vehicle), respectively, and the cells were cultured for 48 hours. Then, cell viability was determined by MTT. The test was done in triplicate.
Cell death rate was calculated by the following formula.
Cell death rate=[1−(ODtest-ODvehicle)]×100%
Cell death rates were analyzed using student's t-test, and group differences were deemed statistically significant when the p-value was lower than 0.05. Zheng-Jun Jin's Q value was calculated using the formula Q=EA+B/(EA+EB-EA×EB) to assess the combined effect of Compound A and the PARP inhibitor, wherein EA+B, EA, and EB referred to the cell death rates caused by the combined treatment, Compound A treatment and PARP inhibitor treatment, respectively. A Q value higher than 1.15 meant a synergistic […] effect.
Another PARP inhibitor, rucaparib (APEXBIO, A4156), was tested alone or with Compound A for inhibitory effect on tumor cell growth, following the protocol of Example 9.

[13] = target: PI3K β isoform (Homo sapiens, UniProt P42338); conditions: one of the other three isoforms
[14] = target: PI3K γ isoform (Homo sapiens, UniProt P48736); test: PI3K γ isoform inhibition; conditions: one of the other three isoforms
Chain of PI3K γ isoform (P48736 whole entry, canonical isoform): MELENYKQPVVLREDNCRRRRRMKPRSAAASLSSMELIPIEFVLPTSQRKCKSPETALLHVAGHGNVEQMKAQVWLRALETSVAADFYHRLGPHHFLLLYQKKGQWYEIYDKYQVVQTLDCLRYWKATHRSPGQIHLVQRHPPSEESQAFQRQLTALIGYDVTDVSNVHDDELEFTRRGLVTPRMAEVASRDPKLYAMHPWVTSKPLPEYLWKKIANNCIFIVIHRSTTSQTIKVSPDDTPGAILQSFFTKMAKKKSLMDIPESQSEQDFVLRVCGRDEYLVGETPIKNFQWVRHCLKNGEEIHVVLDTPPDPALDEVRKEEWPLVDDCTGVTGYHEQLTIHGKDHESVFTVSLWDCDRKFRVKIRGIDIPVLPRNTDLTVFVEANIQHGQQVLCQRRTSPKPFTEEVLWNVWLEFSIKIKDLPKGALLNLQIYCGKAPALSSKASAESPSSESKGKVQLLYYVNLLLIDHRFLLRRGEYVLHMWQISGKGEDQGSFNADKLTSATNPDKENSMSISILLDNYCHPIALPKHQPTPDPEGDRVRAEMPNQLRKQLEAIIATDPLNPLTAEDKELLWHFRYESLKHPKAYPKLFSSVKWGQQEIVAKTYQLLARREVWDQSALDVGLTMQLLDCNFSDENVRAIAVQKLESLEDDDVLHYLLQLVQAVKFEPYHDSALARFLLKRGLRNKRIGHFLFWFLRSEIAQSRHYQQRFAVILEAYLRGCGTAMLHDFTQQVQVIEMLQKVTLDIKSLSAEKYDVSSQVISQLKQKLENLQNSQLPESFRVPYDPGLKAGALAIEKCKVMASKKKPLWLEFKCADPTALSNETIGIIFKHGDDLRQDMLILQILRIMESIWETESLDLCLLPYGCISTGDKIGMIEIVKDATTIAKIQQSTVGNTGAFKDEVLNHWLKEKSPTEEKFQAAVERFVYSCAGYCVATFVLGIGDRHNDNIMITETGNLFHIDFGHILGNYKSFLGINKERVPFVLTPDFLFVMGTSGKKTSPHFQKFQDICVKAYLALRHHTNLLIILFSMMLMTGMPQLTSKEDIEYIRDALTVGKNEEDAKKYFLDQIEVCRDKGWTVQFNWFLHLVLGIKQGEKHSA

Chain of FLT3 (P36888 27-993, species assumed): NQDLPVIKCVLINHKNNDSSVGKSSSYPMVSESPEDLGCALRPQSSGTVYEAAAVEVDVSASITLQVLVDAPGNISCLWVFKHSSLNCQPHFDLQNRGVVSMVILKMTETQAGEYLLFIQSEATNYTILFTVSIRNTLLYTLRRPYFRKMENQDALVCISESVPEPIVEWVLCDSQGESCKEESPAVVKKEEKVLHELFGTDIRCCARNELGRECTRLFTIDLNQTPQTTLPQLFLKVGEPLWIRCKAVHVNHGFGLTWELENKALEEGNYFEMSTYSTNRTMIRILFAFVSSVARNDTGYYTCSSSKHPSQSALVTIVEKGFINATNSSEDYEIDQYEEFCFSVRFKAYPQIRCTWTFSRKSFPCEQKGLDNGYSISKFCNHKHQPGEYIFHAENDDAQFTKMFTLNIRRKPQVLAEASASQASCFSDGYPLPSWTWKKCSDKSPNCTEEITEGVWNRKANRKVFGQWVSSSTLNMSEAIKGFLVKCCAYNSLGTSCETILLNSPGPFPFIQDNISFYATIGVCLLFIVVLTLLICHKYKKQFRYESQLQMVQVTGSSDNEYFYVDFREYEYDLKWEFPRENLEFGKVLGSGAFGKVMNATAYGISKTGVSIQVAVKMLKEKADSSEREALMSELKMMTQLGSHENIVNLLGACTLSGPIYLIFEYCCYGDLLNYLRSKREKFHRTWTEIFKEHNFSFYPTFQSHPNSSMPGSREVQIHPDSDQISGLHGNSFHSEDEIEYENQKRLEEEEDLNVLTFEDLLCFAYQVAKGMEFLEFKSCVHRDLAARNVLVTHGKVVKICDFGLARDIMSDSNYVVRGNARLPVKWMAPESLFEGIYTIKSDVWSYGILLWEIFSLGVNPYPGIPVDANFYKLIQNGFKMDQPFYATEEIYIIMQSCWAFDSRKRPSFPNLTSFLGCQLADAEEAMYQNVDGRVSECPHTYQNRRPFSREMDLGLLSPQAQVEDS
Chain of PI3K β isoform (P42338 whole entry, canonical isoform): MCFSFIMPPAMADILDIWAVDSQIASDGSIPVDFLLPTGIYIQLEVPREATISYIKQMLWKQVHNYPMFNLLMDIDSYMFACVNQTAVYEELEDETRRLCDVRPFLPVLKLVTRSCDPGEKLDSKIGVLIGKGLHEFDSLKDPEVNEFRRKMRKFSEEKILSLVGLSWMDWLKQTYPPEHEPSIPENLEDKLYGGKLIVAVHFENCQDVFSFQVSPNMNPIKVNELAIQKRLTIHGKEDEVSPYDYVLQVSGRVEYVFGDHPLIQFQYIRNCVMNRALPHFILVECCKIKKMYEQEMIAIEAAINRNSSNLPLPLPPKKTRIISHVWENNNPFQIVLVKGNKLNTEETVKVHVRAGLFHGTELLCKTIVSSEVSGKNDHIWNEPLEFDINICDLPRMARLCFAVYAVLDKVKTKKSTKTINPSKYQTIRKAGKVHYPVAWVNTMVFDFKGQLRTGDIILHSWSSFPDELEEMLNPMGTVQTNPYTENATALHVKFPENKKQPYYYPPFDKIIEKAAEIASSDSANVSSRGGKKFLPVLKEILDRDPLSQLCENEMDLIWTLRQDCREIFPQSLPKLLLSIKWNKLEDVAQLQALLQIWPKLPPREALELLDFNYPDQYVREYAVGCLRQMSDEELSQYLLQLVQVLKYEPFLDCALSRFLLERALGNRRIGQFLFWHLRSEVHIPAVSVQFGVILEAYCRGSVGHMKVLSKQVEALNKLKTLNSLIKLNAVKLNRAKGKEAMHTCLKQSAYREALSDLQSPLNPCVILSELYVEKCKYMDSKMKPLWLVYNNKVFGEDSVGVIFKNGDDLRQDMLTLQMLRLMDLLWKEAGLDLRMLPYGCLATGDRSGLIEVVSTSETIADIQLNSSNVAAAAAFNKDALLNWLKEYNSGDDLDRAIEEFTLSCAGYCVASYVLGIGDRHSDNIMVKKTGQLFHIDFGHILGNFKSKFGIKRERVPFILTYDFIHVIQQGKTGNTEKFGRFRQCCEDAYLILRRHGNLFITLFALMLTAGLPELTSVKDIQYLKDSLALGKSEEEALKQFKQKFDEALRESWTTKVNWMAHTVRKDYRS
Chain of PI3K β isoform (P27986 whole entry partner, canonical isoform): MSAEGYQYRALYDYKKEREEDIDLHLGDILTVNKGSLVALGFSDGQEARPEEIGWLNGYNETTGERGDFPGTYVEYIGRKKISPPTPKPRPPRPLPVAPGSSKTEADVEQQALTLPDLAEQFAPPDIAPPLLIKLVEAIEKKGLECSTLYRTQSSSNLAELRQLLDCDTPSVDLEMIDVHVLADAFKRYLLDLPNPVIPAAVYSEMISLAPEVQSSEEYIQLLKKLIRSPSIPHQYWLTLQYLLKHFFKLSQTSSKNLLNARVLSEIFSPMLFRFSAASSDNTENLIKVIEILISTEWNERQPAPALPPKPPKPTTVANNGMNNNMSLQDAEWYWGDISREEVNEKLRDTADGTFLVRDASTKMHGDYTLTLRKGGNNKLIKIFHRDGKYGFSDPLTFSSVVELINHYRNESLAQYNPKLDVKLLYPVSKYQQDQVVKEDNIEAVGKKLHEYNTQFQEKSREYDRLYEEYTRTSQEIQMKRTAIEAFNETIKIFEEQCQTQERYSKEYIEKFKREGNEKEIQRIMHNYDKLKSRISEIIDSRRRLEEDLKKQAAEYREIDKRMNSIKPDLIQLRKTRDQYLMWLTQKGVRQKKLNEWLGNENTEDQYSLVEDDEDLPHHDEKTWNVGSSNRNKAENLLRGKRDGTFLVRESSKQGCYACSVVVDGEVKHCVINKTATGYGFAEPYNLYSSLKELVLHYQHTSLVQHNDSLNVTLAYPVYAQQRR

SMILES: c1cnc2ccc(Nc3nc(NC4CC4)c4nc[nH]c4n3)cc2c1 [Compound A]
- EC50 [1]: ~0.1 µM
- EC50 [2]: ~0.049 µM
- IC50 [3]: 2.3 ± 0.8 µM
- IC50 [4]: 5.9 ± 0.9 µM
- IC50 [5]: 6.1 ± 0.2 µM
- IC50 [6]: 3.5 ± 0.1 µM
- IC50 [7]: 0.3 ± 0.1 µM
- IC50 [8]: 0.8 ± 0.1 µM
- IC50 [9]: ≥ 2.3 µM
- Tumor weight on Day 8 ([10]; 60 mg/kg P.O., D1-4): 0.33 ± 0.13 g
- TGI ([10]; 60 mg/kg P.O., D1-4): 82.8* %
- Tumor weight on Day 8 ([10]; 80 mg/kg I.V., D1&D4): 1.10 ± 0.21 g
- TGI ([10]; 80 mg/kg I.V., D1&D4): 42.7* %
- Tumor weight on Day 8 ([10]; 80 mg/kg P.O., D1 &D4): 1.12 ± 0.34 g
- TGI ([10]; 80 mg/kg P.O., D1 &D4): 41.7* %
- Body weight (without tumor) D0 ([11]; 25 mg/kg P.O., D0, 2, 4, 8, 10): 23.7 g
- Body weight (without tumor) D14 ([11]; 25 mg/kg P.O., D0, 2, 4, 8, 10): 17.7 g
- RTV at D14 ([11]; 25 mg/kg P.O., D0, 2, 4, 8, 10): 13.91 ± 2.39
- Tumor volume D0 ([11]; 25 mg/kg P.O., D0, 2, 4, 8, 10): 145 ± 19 mm^3
- Tumor volume D14 ([11]; 25 mg/kg P.O., D0, 2, 4, 8, 10): 1997 ± 316 mm^3
- T/C ([11]; 25 mg/kg P.O., D0, 2, 4, 8, 10): 66%
- Body weight (without tumor) D0 ([11]; 50 mg/kg P.O., D0, 3, 6, 9): 23.4 g
- Body weight (without tumor) D14 ([11]; 50 mg/kg P.O., D0, 3, 6, 9): 16.2 g
- RTV at D14 ([11]; 50 mg/kg P.O., D0, 3, 6, 9): 8.21 ± 3.55
- Tumor volume D0 ([11]; 50 mg/kg P.O., D0, 3, 6, 9): 147 ± 22 mm^3
- Tumor volume D14 ([11]; 50 mg/kg P.O., D0, 3, 6, 9): 1176 ± 450 mm^3
- T/C ([11]; 50 mg/kg P.O., D0, 3, 6, 9): 38.9* %
- Body weight (without tumor) D0 ([11]; 50 mg/kg P.O., D0, 4, 8): 23.3 g
- Body weight (without tumor) D14 ([11]; 50 mg/kg P.O., D0, 4, 8): 16.9 g
- RTV at D14 ([11]; 50 mg/kg P.O., D0, 4, 8): 10.25 ± 2.39
- Tumor volume D0 ([11]; 50 mg/kg P.O., D0, 4, 8): 149 ± 29 mm^3
- Tumor volume D14 ([11]; 50 mg/kg P.O., D0, 4, 8): 1497 ± 282 mm^3
- T/C ([11]; 50 mg/kg P.O., D0, 4, 8): 48.6* %
- Cell Death Rate/% 1 ([12]; 48 hours, Table 10): 13.5%
- Cell Death Rate/% 2 ([12]; 48 hours, Table 10): 13.18%
- Cell Death Rate/% 3 ([12]; 48 hours, Table 10): 13.67%
- Cell Death Rate/% mean ([12]; 48 hours, Table 10): 13.45%
- Cell Death Rate/% 1 ([12]; Example 10, Table 11): 15%
- Cell Death Rate/% 2 ([12]; Example 10, Table 11): 14.62%
- Cell Death Rate/% 3 ([12]; Example 10, Table 11): 15.17%
- Cell Death Rate/% mean ([12]; Example 10, Table 11): 14.93%
- EC50, PI3K β isoform [13]: at the μM level
- EC50, PI3K γ isoform [14]: at the μM level
